Laboratory results taken from ChEMBL document CHEMBL1201862, “PubChem BioAssay data set” (2004).
Active and inactive are the calls of the source.

What was measured:
fMet-Leu-Phe receptor = molecular target: T1, fMet-Leu-Phe receptor (Homo sapiens, UniProt P21462); test: formyl peptide receptor binders – dose response (AID 519); assay type: functional
T1 sequence (P21462 whole entry): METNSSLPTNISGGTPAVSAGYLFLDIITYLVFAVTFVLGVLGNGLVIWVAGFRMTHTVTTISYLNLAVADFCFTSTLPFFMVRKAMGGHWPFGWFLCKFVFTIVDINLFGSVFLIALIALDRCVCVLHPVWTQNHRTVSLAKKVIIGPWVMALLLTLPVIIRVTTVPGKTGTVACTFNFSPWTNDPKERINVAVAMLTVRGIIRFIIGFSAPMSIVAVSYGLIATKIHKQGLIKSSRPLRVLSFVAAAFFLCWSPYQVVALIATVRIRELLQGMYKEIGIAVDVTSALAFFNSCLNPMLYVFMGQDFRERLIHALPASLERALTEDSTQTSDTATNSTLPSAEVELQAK

[1] = molecular target: T2, Tyrosyl-DNA phosphodiesterase 2 (Homo sapiens, UniProt O95551); test: potency against TDP2 phosphodiesterase activity – biochemical, epi absorbance, IC50, dose response (AID 743297)
T2 sequence (O95551 whole entry): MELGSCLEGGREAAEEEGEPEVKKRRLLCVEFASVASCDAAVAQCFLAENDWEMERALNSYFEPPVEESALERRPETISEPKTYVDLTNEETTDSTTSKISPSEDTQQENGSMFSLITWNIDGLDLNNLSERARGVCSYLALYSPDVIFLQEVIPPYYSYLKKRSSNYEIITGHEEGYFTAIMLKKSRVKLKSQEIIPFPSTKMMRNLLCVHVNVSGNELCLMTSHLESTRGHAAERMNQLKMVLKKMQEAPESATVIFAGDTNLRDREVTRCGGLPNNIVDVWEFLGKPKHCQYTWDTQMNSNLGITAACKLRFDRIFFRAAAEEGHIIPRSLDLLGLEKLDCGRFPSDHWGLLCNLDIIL

[2] = molecular target: T3, Histone-lysine N-methyltransferase NSD2 (Homo sapiens, UniProt O96028); assay type: biochemical
T3 sequence (O96028 whole entry): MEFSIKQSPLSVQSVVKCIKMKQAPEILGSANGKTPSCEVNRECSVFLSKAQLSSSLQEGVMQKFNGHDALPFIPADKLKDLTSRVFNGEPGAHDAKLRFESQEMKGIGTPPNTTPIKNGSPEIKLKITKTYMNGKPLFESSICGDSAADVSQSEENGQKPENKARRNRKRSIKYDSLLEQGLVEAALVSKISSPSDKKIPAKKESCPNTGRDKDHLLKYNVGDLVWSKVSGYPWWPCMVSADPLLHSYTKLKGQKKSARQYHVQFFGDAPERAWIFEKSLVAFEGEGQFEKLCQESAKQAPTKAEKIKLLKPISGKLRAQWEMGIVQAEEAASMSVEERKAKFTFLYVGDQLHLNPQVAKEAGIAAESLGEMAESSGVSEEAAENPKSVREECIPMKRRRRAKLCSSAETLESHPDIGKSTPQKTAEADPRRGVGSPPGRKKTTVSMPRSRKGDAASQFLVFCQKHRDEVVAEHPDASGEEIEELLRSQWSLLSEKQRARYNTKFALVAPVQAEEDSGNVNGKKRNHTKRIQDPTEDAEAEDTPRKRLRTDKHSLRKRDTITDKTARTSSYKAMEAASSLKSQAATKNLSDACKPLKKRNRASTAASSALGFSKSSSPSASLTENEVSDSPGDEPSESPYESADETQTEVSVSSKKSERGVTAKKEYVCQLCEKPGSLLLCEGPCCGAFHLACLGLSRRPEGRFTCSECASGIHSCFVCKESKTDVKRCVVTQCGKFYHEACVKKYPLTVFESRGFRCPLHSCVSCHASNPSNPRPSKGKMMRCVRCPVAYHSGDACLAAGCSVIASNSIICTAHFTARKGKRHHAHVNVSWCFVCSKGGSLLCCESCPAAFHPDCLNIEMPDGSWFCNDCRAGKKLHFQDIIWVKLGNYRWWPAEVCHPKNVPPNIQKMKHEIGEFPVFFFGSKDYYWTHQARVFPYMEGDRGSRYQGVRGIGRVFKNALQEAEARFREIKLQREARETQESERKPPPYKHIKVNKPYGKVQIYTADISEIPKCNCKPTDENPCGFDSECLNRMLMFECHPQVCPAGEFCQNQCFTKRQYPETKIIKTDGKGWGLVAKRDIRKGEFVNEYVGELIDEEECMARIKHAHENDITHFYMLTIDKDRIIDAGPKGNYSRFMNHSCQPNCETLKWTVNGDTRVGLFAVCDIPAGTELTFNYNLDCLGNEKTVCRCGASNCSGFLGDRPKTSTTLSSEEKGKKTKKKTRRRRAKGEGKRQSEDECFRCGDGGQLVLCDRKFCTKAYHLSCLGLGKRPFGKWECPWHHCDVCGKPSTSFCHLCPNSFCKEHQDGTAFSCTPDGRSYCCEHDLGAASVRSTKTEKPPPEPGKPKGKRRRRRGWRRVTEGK

[3] = OVCAR-3 cell viability loss – plate reader, dry powder samples, PAX8 inhibitor project, dose response (AID 743044); assay type: functional, cell-based
[4] = OVCAR8 cell viability loss – plate reader, dry powder samples, PAX8 project, dose response (AID 743197); assay type: functional, cell-based; settings: OVCAR-8
[5] = general cell-killing toxicity readout – plate reader, dry powder samples, cytotoxicity control for PAX8 inhibitor project, dose response (AID 743021); assay type: functional, cell-based
Paired box protein Pax-8 = Paired box protein Pax-8 (Homo sapiens, UniProt Q06710); test: PAX8 transcriptional activity inhibition in RMG-I – RMG-I cells, luciferase, cherry-pick, dose response (AID 687027); assay type: functional, cell-based;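 also: luciferase reporter driven by Pax8 target thyroperoxidase promoter measured by SteadyGlo luminescence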
Paired box protein Pax-8, sequence (Q06710 whole entry): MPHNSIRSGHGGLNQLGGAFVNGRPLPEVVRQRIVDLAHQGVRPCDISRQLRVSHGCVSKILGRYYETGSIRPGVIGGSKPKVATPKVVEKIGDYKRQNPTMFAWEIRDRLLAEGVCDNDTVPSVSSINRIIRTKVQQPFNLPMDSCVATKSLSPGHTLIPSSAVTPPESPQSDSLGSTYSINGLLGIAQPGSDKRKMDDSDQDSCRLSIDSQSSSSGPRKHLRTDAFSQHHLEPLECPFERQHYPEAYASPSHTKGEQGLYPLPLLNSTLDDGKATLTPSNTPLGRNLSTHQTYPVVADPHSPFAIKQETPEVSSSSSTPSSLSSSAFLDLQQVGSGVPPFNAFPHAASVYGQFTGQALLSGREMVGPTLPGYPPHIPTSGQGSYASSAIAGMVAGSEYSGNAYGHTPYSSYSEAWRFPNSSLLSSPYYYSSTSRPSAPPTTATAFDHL

| SMILES | Ki (fMet-Leu-Phe receptor) | AC50 [5] | AC50 (Paired box protein Pax-8) | further results |
| --- | --- | --- | --- | --- |
| C[N+]1(C)[C@@H]2C[C@@H](OC(=O)[C@H](CO)c3ccccc3)C[C@H]1[C@@H]1O[C@@H]12 | > 66.7 µM (inactive) |  |  |  |
| S=C(Nc1ccc2nsnc2c1)N1CCCCC1 |  |  |  | IC50 [1]: > 128 µM (inactive); AC50 [2]: 5.13 µM (active) |
| COC(=O)Cc1n[nH]c2c1C(C1C=CCCC1)C(C#N)=C(N)O2 (stereo not given) | > 66.7 µM (inactive) |  |  |  |
| C[C@H](CO)N1C[C@H](C)[C@H](CN(C)S(=O)(=O)c2ccc(Cl)cc2)Oc2c(NC(=O)Nc3ccc(F)cc3)cccc2C1=O |  | 51.4 µM (active) | 10.2 µM (active) | AC50 [3]: 31.8 µM (active); AC50 [4]: 31.8 µM (active) |
| C[C@@H]1CCCCO[C@H](CN(C)S(=O)(=O)c2ccc(F)cc2)[C@H](C)CN([C@@H](C)CO)C(=O)c2cc(NS(=O)(=O)c3ccc(Cl)cc3)ccc2O1 |  | 68.4 µM (active) | 9.75 µM (active) |  |
